From patent US20040018500A1, “Methods and systems for analyzing complex biological systems” (priority 2001, published 2004)
Entries after “also recorded” stand apart in the source; their conditions may differ.

Legend:
[1] = test system: Arabidopsis thaliana plants; experiment: SOA1 phenotypic analysis of herbicide-treated Arabidopsis plants; type: in vivo; details: for leafCurling (Dev.) / leafTwisting (Dev.) / leafWidth (Dev.) / matureLeafAnthocyanins (Dev.) / matureLeafChlorosis (Dev.) / matureLeafNecrosis (Dev.) / newLeafAnthocyanins (Dev.) / newLeafChlorosis (Dev.) / newLeafNecrosis (Dev.) / pointedLeaves (Dev.): numeric value standardized to mock treated tissues; for tMic (Dev.): score for time to full symptoms at minimum inhibitory concentration; for Symptom Class: three-week-old Arabidopsis treated with herbicide, phenotypes shown in FIG. 12; for characteristic symptoms (phenotypic analysis): herbicide-treated Arabidopsis
Arabidopsis thaliana [2] = experiment: MOA1 gene expression profiling (22,000 gene array) of sprayed Arabidopsis; details: for extent of gene expression perturbation compared to the other treatments: 1 hr; for No. of Lethal Genes Altered: regulated genes (1 hr) found in list of genes essential for plant growth and development
[3] = test system: Saccharomyces cerevisiae wild type strain BY4743; experiment: AF1 metabolite analysis (GC-MS, LC-MS) of yeast treated with antifungal drugs; type: cell-based
Magnaporthe grisea = type: cell-based
Arabidopsis thaliana [4] = experiment: MOA1 biochemical (metabolite) profiling by LC-MS and GC-MS of sprayed Arabidopsis; details: for Number of Metabolites Changed: (unknown #) / Number of Metabolites Changed: Total #: 1 hr; for commonly regulated (putative stress-related) metabolites: MOA1, 20 minutes and 1 hour after spraying
Arabidopsis plants = details: nitrate addition to N-starved Arabidopsis; cited from earlier work

O=C(O)COc1ccc(Cl)cc1Cl [2,4-D]
leafCurling (Dev.) [1]: 1
leafTwisting (Dev.) [1]: 2
leafWidth (Dev.) [1]: −1
matureLeafAnthocyanins (Dev.) [1]: 1
matureLeafChlorosis (Dev.) [1]: 2
matureLeafNecrosis (Dev.) [1]: 0
newLeafAnthocyanins (Dev.) [1]: 0
newLeafChlorosis (Dev.) [1]: 1
newLeafNecrosis (Dev.) [1]: 0
pointedLeaves (Dev.) [1]: 0
tMic (Dev.) [1]: 2
Symptom Class [1]: 5

O=C(O)c1cc(Oc2ccc(C(F)(F)F)cc2Cl)ccc1[N+](=O)[O-] [Acifluorfen]
characteristic symptoms (phenotypic analysis) [1]: Necrotic leaf flecks
Symptom Class [1]: 6

COC(=O)NS(=O)(=O)c1ccc(N)cc1 [Asulam]
extent of gene expression perturbation compared to the other treatments (Arabidopsis thaliana [2]): fewest gene expression perturbations
No. of Lethal Genes Altered (Arabidopsis thaliana [2]): 5

CCNc1nc(Cl)nc(NC(C)C)n1 [Atrazine]
characteristic symptoms (phenotypic analysis) [1]: rapid and widespread leaf necrosis
Symptom Class [1]: 7

O=C(O)Cn1c(=O)sc2cccc(Cl)c21 [Benazolin]
Symptom Class [1]: 5

CC(C)N1C(=O)c2ccccc2NS1(=O)=O [Bentazon]
characteristic symptoms (phenotypic analysis) [1]: rapid and widespread leaf necrosis
Symptom Class [1]: 7

COC(=O)c1cc(Oc2ccc(Cl)cc2Cl)ccc1[N+](=O)[O-] [Bifenox]
characteristic symptoms (phenotypic analysis) [1]: Necrotic leaf flecks
Symptom Class [1]: 6

COc1nc(C)nc(NC(=O)NS(=O)(=O)c2ccccc2Cl)n1 [Chlorsulfuron]
characteristic symptoms (phenotypic analysis) [1]: anthocyanin accumulation in the older leaves accompanied by chlorosis of the newly emerging leaves
Symptom Class [1]: 4
No. of Lethal Genes Altered (Arabidopsis thaliana [2]): 8

COc1c(Cl)ccc(Cl)c1C(=O)O [Dicamba]
Symptom Class [1]: 5

c1cc[n+]2c(c1)-c1cccc[n+]1CC2 [Diquat]
characteristic symptoms (phenotypic analysis) [1]: rapid and widespread leaf necrosis
leafCurling (Dev.) [1]: 2
leafTwisting (Dev.) [1]: 0
leafWidth (Dev.) [1]: −2
matureLeafAnthocyanins (Dev.) [1]: 0
matureLeafChlorosis (Dev.) [1]: 1
matureLeafNecrosis (Dev.) [1]: 4
newLeafAnthocyanins (Dev.) [1]: 0
newLeafChlorosis (Dev.) [1]: 1
newLeafNecrosis (Dev.) [1]: 4
pointedLeaves (Dev.) [1]: 1
tMic (Dev.) [1]: 2
Symptom Class [1]: 7

CN(C)C(=O)Nc1ccc(Cl)c(Cl)c1 [Diuron]
characteristic symptoms (phenotypic analysis) [1]: rapid and widespread leaf necrosis
leafCurling (Dev.) [1]: 1
leafTwisting (Dev.) [1]: 0
leafWidth (Dev.) [1]: −2
matureLeafAnthocyanins (Dev.) [1]: 0
matureLeafChlorosis (Dev.) [1]: 2
matureLeafNecrosis (Dev.) [1]: 4
newLeafAnthocyanins (Dev.) [1]: newLeafAnthocyanins 0
newLeafChlorosis (Dev.) [1]: 2
newLeafNecrosis (Dev.) [1]: 4
pointedLeaves (Dev.) [1]: 1
tMic (Dev.) [1]: 1
Symptom Class [1]: 7

OC(Cn1cncn1)(Cn1cncn1)c1ccc(F)cc1F [Fiuconazole]
Fold Change of hypoxanthine ([3]; nLC): 0.7757

CP(=O)(O)CCC(N)C(=O)O (stereo not shown) [Glufosinate]
characteristic symptoms (phenotypic analysis) [1]: Chlorosis and leaf curling
leafCurling (Dev.) [1]: 2
leafTwisting (Dev.) [1]: 1
leafWidth (Dev.) [1]: −2
matureLeafAnthocyanins (Dev.) [1]: 0
matureLeafChlorosis (Dev.) [1]: 3
matureLeafNecrosis (Dev.) [1]: 0
newLeafAnthocyanins (Dev.) [1]: 0
newLeafChlorosis (Dev.) [1]: 3
newLeafNecrosis (Dev.) [1]: 0
pointedLeaves (Dev.) [1]: 1
tMic (Dev.) [1]: 1
Symptom Class [1]: 3
nitrogen sources M. grisea can utilize in the presence of the compound (Magnaporthe grisea): only able to utilize glutamine and glutamate as nitrogen sources
No. of Lethal Genes Altered (Arabidopsis thaliana [2]): 10
Number of Metabolites Changed: (unknown #) (Arabidopsis thaliana [4]; p < 0.05): 4(4)
Number of Metabolites Changed: Total # (Arabidopsis thaliana [4]; p < 0.05): 4(4)
Number of Metabolites Changed: (unknown #) (Arabidopsis thaliana [4]; p < 0.11): 9(9)
Number of Metabolites Changed: Total # (Arabidopsis thaliana [4]; p < 0.11): 9(9)
commonly regulated (putative stress-related) metabolites (Arabidopsis thaliana [4]): Only a few, if any, stress-related metabolites were observed

O=C(O)CNCP(=O)(O)O [Glyphosate]
characteristic symptoms (phenotypic analysis) [1]: anthocyanin accumulation in the older leaves accompanied by chlorosis of the newly emerging leaves
leafCurling (Dev.) [1]: 0
leafTwisting (Dev.) [1]: 0
leafWidth (Dev.) [1]: 0
matureLeafAnthocyanins (Dev.) [1]: 3
matureLeafChlorosis (Dev.) [1]: 1
matureLeafNecrosis (Dev.) [1]: 3
newLeafAnthocyanins (Dev.) [1]: 1
newLeafChlorosis (Dev.) [1]: 2
newLeafNecrosis (Dev.) [1]: 0
pointedLeaves (Dev.) [1]: 1
tMic (Dev.) [1]: 2
Symptom Class [1]: 4
Tier 4: growth of M. grisea with ammonium or glutamine as nitrogen source (Magnaporthe grisea): Little growth defect
growth of M. grisea with nitrate, nitrite, or glutamate as the sole nitrogen source (Magnaporthe grisea): inhibited growth
comparison of growth results for Tiers 3 and 4 (Unknown 4 versus glyphosate) (Magnaporthe grisea; 250 μg/ml): nearly identical as compared to Unknown 4
growth inhibition of M. grisea and its remediation (Magnaporthe grisea; glyphosate at 1.0 mg/ml): remediated by inclusion of aromatic amino acids
tyrosine level (Arabidopsis thaliana [4]; MOA1 metabolite data, one hour, relative to the control): decreased relative to the control after one hour

CC(C)C1(C)N=C(c2ncccc2C(=O)O)NC1=O (stereo not shown) [Imazapyr]
characteristic symptoms (phenotypic analysis) [1]: anthocyanin accumulation in the older leaves accompanied by chlorosis of the newly emerging leaves
Symptom Class [1]: 4
commonly regulated (putative stress-related) metabolites (Arabidopsis thaliana [4]): Only a few, if any, stress-related metabolites were observed

CCc1cnc(C2=NC(C)(C(C)C)C(=O)N2)c(C(=O)O)c1 (stereo not shown) [Imazethapyr]
characteristic symptoms (phenotypic analysis) [1]: anthocyanin accumulation in the older leaves accompanied by chlorosis of the newly emerging leaves
Symptom Class [1]: 4

CS(=O)(=O)c1cc(C(F)(F)F)ccc1C(=O)c1cnoc1C1CC1 [Isoxaflutole]
No. of Lethal Genes Altered (Arabidopsis thaliana [2]): 15
Alpha-tocopherol levels (Arabidopsis thaliana [4]; MOA1 metabolite data, early time points): not significantly changed relative to the control
tyrosine and phenylalanine levels (Arabidopsis thaliana [4]; MOA1 metabolite data, relative to the control): up-regulated relative to the control; also recorded: began to accumulate relative to the control after one hour

CCc1cccc(C)c1N(C(=O)CCl)C(C)COC (stereo not shown) [Metolachlor]
Symptom Class [1]: 7

CSc1nnc(C(C)(C)C)c(=O)n1N [Metribuzin]
characteristic symptoms (phenotypic analysis) [1]: rapid and widespread leaf necrosis
Symptom Class [1]: 7

O=C(O)c1ccccc1C(=O)Nc1cccc2ccccc12 [Naptalam]
extent of gene expression perturbation compared to the other treatments (Arabidopsis thaliana [2]): fewest gene expression perturbations
No. of Lethal Genes Altered (Arabidopsis thaliana [2]): 3

O=[N+]([O-])O [Nitrate, nitrate]
Nitrate Regulation of Glutamate synthetase (Arabidopsis plants): ↑
Nitrate Regulation of Glutamine synthetase(2) (Arabidopsis plants): ↑
Nitrate Regulation of MADs Box(2) (Arabidopsis plants): ↓
Nitrate Regulation of MYB transcription factor (Arabidopsis plants): ↑
Nitrate Regulation of Malate Dehydrogenase (Arabidopsis plants): ↑
Nitrate Regulation of Nitrate transporter (Arabidopsis plants): ↑
Nitrate Regulation of Phosphate transporter (Arabidopsis plants): ↑
Nitrate Regulation of Transaldolase (Arabidopsis plants): ↑
Nitrate Regulation of Transketolase (Arabidopsis plants): ↑

CNc1cnn(-c2cccc(C(F)(F)F)c2)c(=O)c1Cl [Norfluazon, Norflurazon]
commonly regulated (putative stress-related) metabolites (Arabidopsis thaliana [4]): Only a few, if any, stress-related metabolites were observed

C[n+]1ccc(-c2cc[n+](C)cc2)cc1 [Paraquat]
characteristic symptoms (phenotypic analysis) [1]: rapid and widespread leaf necrosis
leafCurling (Dev.) [1]: 2
leafTwisting (Dev.) [1]: 0
leafWidth (Dev.) [1]: −1
matureLeafAnthocyanins (Dev.) [1]: 0
matureLeafChlorosis (Dev.) [1]: 1
matureLeafNecrosis (Dev.) [1]: 4
newLeafAnthocyanins (Dev.) [1]: 0
newLeafChlorosis (Dev.) [1]: 1
newLeafNecrosis (Dev.) [1]: 4
pointedLeaves (Dev.) [1]: 1
tMic (Dev.) [1]: 2
Symptom Class [1]: 7

CC[C@@H]([C@H](C)O)n1ncn(-c2ccc(N3CCN(c4ccc(OC[C@@H]5CO[C@@](Cn6cncn6)(c6ccc(F)cc6F)C5)cc4)CC3)cc2)c1=O [Posaconazoie]
Fold Change luteolin ([3]; platform LC): 0

CC[C@@H]([C@H](C)O)n1ncn(-c2ccc(N3CCN(c4ccc(OC[C@@H]5CO[C@@](Cn6cncn6)(c6ccc(F)cc6F)C5)cc4)CC3)cc2)c1=O [Posaconazote]
Fold Change of porphobilinogen ([3]; platform nLC, p-Value 1): 0
